US7268150B2, “2-cyano-4-fluoropyrrolidine derivative or its salt” (Yamanouchi Pharmaceutical Co., Ltd., priority 2002, dated 2007)
Where two headings read alike, the source gives them in different places.

How the values were obtained:
DPP-IV = target: T1, DPP-IV (Homo sapiens, UniProt P27487); experiment: Test for determination of DPP-IV inhibiting activity (Gly-Pro-AMC cleavage by human plasma); format: biochemical
T1 construct: added was 5 μL of plasma collected from healthy adult volunteers; from tissue; host or cells: plasma of healthy adult volunteers
Experimental: (1) Test for Determination of DPP-IV Inhibiting Activity:
The reaction was performed in a 96-well flat-bottom microtiter plate. A varying concentration of the test compound was added to an aqueous solution comprised of 25 mM Tris-HCl, 140 mM sodium chloride, 10 mM potassium chloride, 1% RIA-grade bovine serum albumin, and 0.01 mM Gly-Pro-AMC (Bachem). To this reaction solution (95 μL/well), added was 5 μL of plasma collected from healthy adult volunteers, and incubated at room temperature for 20 minutes. […] The data of 3 wells under the same conditions were averaged.
The inhibition in the test group, relative to the solvent-added group was calculated, and the IC50 value thereof was obtained through logistic analysis.

plasma DPP-IV [1] = target: T2, plasma DPP-IV (Mus musculus, UniProt P28843); experiment: Test for DPP-IV inhibiting activity duration in mice; format: in vivo; conditions: po
T2 construct: The collected blood was immediately centrifuged to isolate the plasma; from tissue; host or cells: plasma of male ICR mice (Nippon SLC)
Experimental: (2) Test for DPP-IV Inhibiting Activity Duration in Mice:
(§1) Male ICR mice (Nippon SLC) were grouped into a test group and a control group of 5 subjects each. A test compound (10 mg/kg) was dissolved in purified water, and orally administered. Purified water alone was orally administered to the mice of the control group. One half, 6, and 12 hours after the administration, the blood was collected from each mouse through the orbital venous plexus thereof. The collected blood was immediately centrifuged to isolate the plasma, and the DPP-IV activity of the plasma was measured.
(§2) The process of plasma DPP-IV activity determination was as follows: The reaction was performed in a 96-well plate. 5 μl of the collected plasma was added to an aqueous solution (95 μl/well) comprises 25 mM Tris-HCl, 140 mM sodium chloride, 10 mM potassium chloride, 1% bovine serum albumin, and 0.01 mM Gly-Pro-AMC (Bachem), and incubated at room temperature for 20 minutes.
(§3) The fluorescent intensity of the well, to which was added the plasma collected from the control group, was 100%. Based on it, the DPP-IV activity of the plasma collected from the test compound-administered mice was calculated, and the activity difference between the control group and the test group was obtained. This indicated the inhibition in the test group.

plasma DPP-IV [2] = target: T3, plasma DPP-IV (Rattus norvegicus, UniProt P14740); experiment: Test for DPP-IV inhibiting activity duration in rats; format: in vivo; conditions: po
T3 construct: The collected blood was immediately centrifuged to isolate the plasma; from tissue; host or cells: plasma of male SD rats (Clea Japan)
Experimental: as §2
(3) Test for DPP-IV Inhibiting Activity Duration in Rats:
as §1, with “SD rats (Clea Japan)” for “ICR mice (Nippon SLC)”, “rats” for “mice”, “rat” for “mouse”, “tail vein” for “orbital venous plexus”, “measured according to the same process as in the dipeptidyl peptidase-IV (DPP-IV) inhibiting activity duration test shown in (2).” for “measured.”
as §3, with “rats” for “mice”

[3] = plasma from healthy adult volunteers, 0.01 mM Gly-Pro-AMC, room temperature, 20 minutes, read-out: IC50 (DPP-IV inhibiting activity)
[4] = male ICR mice, 10 mg/kg orally, 12 h after administration, relative to control group, read-out: inhibition of plasma DPP-IV activity after 12 h
[5] = read-out: inhibition of plasma DPP-IV activity after 6 h, male ICR mice, 10 mg/kg orally, 6 h after administration, relative to control group
[6] = male SD rats, 10 mg/kg orally, 12 h after administration, relative to control group, read-out: inhibition of plasma DPP-IV activity after 12 h
[7] = read-out: inhibition of plasma DPP-IV activity after 6 h, male SD rats, 10 mg/kg orally, 6 h after administration, relative to control group
[8] = read-out: inhibition of plasma DPP-IV activity after 6 h
[9] = read-out: inhibition of plasma DPP-IV activity after 12 h

T3 sequence (P14740 37-767 limits assumed): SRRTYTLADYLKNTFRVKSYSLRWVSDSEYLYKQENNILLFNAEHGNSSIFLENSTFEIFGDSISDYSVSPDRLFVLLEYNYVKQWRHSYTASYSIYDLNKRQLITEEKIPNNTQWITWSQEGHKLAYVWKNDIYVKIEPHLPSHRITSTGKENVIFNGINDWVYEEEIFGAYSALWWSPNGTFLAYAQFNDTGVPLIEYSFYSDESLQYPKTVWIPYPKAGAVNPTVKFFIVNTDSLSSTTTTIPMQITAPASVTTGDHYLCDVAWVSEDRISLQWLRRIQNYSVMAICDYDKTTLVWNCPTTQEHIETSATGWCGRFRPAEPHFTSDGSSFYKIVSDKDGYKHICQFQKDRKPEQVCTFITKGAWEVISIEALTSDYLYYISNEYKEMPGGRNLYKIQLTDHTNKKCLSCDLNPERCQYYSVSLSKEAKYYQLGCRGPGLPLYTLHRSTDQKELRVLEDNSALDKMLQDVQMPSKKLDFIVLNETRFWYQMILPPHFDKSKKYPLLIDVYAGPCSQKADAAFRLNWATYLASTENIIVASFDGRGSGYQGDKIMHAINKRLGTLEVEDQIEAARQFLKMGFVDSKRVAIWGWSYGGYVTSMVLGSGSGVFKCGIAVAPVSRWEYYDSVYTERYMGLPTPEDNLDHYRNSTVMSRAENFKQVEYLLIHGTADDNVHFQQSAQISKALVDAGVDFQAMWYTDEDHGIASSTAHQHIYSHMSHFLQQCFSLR
T1 sequence (P27487 39-766 limits assumed): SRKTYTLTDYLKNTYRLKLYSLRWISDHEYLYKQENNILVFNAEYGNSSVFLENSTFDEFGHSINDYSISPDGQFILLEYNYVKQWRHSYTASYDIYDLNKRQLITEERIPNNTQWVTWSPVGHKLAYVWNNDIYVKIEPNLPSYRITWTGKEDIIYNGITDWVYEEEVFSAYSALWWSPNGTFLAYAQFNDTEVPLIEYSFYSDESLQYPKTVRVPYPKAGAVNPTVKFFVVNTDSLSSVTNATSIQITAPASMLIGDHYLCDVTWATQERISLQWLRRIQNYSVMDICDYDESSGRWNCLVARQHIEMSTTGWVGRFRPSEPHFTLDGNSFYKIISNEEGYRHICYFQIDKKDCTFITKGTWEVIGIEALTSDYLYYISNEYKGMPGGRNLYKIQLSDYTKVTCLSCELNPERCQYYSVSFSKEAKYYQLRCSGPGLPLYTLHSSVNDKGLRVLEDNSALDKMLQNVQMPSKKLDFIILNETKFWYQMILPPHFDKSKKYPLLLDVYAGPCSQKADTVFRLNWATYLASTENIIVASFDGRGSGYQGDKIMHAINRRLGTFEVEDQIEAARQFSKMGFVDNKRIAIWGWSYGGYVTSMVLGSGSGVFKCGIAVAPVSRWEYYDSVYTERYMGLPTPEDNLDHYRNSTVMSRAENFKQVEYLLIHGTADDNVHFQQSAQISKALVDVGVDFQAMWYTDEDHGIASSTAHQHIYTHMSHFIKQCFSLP
T2 sequence (P28843 37-760 limits assumed): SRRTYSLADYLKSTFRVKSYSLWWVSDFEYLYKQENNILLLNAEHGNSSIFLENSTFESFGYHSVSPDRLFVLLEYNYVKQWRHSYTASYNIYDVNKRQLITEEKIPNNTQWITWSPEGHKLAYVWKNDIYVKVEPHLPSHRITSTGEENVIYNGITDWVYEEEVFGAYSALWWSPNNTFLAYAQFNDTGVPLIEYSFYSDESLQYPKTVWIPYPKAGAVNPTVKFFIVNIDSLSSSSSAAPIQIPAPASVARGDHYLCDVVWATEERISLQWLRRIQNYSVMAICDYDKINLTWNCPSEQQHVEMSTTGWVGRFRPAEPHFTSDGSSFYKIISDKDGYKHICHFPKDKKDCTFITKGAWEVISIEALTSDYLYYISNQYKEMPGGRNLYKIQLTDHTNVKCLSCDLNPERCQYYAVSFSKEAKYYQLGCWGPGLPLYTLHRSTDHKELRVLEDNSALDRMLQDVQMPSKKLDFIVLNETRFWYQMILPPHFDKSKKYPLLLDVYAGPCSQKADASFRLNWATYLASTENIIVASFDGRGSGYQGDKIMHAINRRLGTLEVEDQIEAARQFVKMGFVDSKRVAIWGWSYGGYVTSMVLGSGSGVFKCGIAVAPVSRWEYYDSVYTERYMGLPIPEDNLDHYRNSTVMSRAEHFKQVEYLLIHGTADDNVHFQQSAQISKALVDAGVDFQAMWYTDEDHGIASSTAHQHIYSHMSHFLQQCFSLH

Compound	IC50 (DPP-IV; [3]) [nM]	inhibition at 10 mg/kg (plasma DPP-IV [1]; [4]) [%]	inhibition at 10 mg/kg (plasma DPP-IV [1]; [5]) [%]	inhibition at 10 mg/kg (plasma DPP-IV [2]; [6]) [%]	inhibition at 10 mg/kg (plasma DPP-IV [2]; [7]) [%]	also measured
N#C[C@@H]1C[C@H](F)CN1C(=O)CNC1CCN(C(=O)N2CCOCC2)CC1 [Example 28]	5.1	–	–	–	–	–
N#C[C@@H]1C[C@H](F)CN1C(=O)CNC1CCN(C(=O)CO)CC1 [Example 21]	6	71	78	–	–	–
CC1(NCC(=O)N2C[C@@H](F)C[C@H]2C#N)CCN(C(=O)CO)CC1 [Example 34]	8.2	79	85	94	96	–
CC1(NCC(=O)N2C[C@@H](F)C[C@H]2C#N)CCN(C(=O)CF)CC1 [Example 41]	–	–	–	–	–	IC50 (DPP-IV): 5.9 nM; inhibition at 10 mg/kg (plasma DPP-IV [1]; [8]): 83%; inhibition at 10 mg/kg (plasma DPP-IV [1]; [9]): 78%; inhibition at 10 mg/kg (plasma DPP-IV [2]; [8]): 93%; inhibition at 10 mg/kg (plasma DPP-IV [2]; [9]): 89%
COC(C)S(=O)(=O)N1CCC(C)(NCC(=O)N2C[C@@H](F)C[C@H]2C#N)CC1 (stereo partly shown) [compound 3, reference compound]	–	–	–	45	80	–
CC1(NCC(=O)N2C[C@@H](F)C[C@H]2C#N)CCN(C=O)CC1 [Example 36]	7.5	78	81	86	92	–
N#C[C@@H]1C[C@H](F)CN1C(=O)CNC1CCN(C=O)CC1 [Example 19]	4.2	61	72	–	–	–
CS(=O)(=O)N1CCC(NCC(=O)N2C[C@@H](F)C[C@H]2C#N)CC1 [Example 1, (2S,4S)-4-fluoro-1-({[1-(methanesulfonyl)piperidin-4-yl]amino}acetyl)pyrrolidine-2-carbonitrile monofumarate]	4.2	59	74	–	–	–
COCC(=O)N1CCC(NCC(=O)N2CCC[C@H]2C#N)CC1 [compound 2, reference compound]	–	–	–	55	77	–
CS(=O)(=O)N1CCC(NCC(=O)N2CCC[C@H]2C#N)CC1 [compound 1, reference compound]	–	–	–	38	65	–
